ChEMBL document CHEMBL1157845, “Structure-activity relationship of new anti-tuberculosis agents derived from oxazoline and oxazole benzyl esters” (Eur J Med Chem, 2010)
In brackets after ≈: the same amount, converted by molar mass. Activity calls are given as the source filed them. The rule behind the calls is not given here.

What was measured:
[1] = tested on: Mycobacterium tuberculosis; assay: Antimycobacterial activity against Mycobacterium tuberculosis Erdman infected in BALB/c mouse assessed as reduction of bacterial load at 200 mg/kg, po qd for 5 days per week administered 60 days after infection measured after 85 days post infection; assay type: functional, organism-based; set-up: dose 200 mg/kg
[2] = tested on: Mycobacterium tuberculosis; assay: Antimycobacterial activity against Mycobacterium tuberculosis H37Rv ATCC 27294 in GAST medium after 1 week by microplate alamar blue assay; assay type: functional; settings: H37Rv ATCC 27294, 168 h
[3] = tested on: Mycobacterium tuberculosis; assay: Antimycobacterial activity against Mycobacterium tuberculosis H37Rv ATCC 27294 in GAS medium after 1 week by microplate alamar blue assay; assay type: functional; settings: H37Rv ATCC 27294, 168 h

Compound	Activity [1]	MIC [2] [µM]	MIC [3] [µM]
Cc1ccc(C2=N[C@H](C(=O)OCc3ccccc3)CO2)cc1	inactive	27.3 (≈ 8.06 µg/mL)	15.5 (≈ 4.58 µg/mL)
O=C(OCc1ccccc1)[C@@H]1COC(c2cncc(-c3ccccc3)c2)=N1	inactive	29.8 (≈ 10.7 µg/mL)	12.5 (≈ 4.48 µg/mL)
C[C@@H]1OC(c2ccccc2)=N[C@@H]1C(=O)O	inactive	> 128	> 128
COc1ccc(-c2nc(C(=O)OCc3ccccc3)c(C)o2)cc1	inactive	15.8 (≈ 5.11 µg/mL)	47.4 (≈ 15.3 µg/mL)
O=C(OCc1ccccc1)[C@@H]1COC(c2cccc(Cl)c2OCc2ccccc2)=N1	inactive	34 (≈ 14.3 µg/mL)	6.3 (≈ 2.66 µg/mL)
COc1ccc(C2=N[C@H](C(=O)OCc3ccccc3)CO2)cc1Cl	inactive	7.58 (≈ 2.62 µg/mL)	60.7 (≈ 21 µg/mL)
COC(=O)[C@H]1N=C(c2ccccc2)O[C@H]1C	inactive	> 128	> 128
COc1ccccc1C1=N[C@H](C(=O)OCc2ccccc2)CO1	inactive	29.2 (≈ 9.09 µg/mL)	37 (≈ 11.5 µg/mL)
O=C(OCc1ccccc1)[C@@H]1COC(c2ccc([N+](=O)[O-])cc2F)=N1	inactive	8.7 (≈ 3 µg/mL)	13 (≈ 4.48 µg/mL)
O=C(OCc1ccccc1)[C@@H]1COC(c2cccnc2Oc2ccccc2)=N1	inactive	> 128	58.8 (≈ 22 µg/mL)
Cc1ccc(-c2nc(C(=O)OCc3ccccc3)co2)cn1	inactive	10.2 (≈ 3 µg/mL)	3.01 (≈ 0.886 µg/mL)
COc1cccc(C2=N[C@H](C(=O)OCc3ccccc3)CO2)c1	inactive	42.5 (≈ 13.2 µg/mL)	24.8 (≈ 7.72 µg/mL)
O=C(OCc1ccccc1)[C@@H]1COC(c2cccnc2Sc2ccccc2)=N1	inactive	13.4 (≈ 5.23 µg/mL)	17.8 (≈ 6.95 µg/mL)
Nc1ccc(C2=N[C@H](C(=O)OCc3ccccc3)CO2)cc1	inactive	26.8 (≈ 7.94 µg/mL)	25.4 (≈ 7.53 µg/mL)
COc1ccc(CC2=N[C@H](C(=O)OCc3ccccc3)CO2)cc1	inactive	> 128	> 128
O=C(OCc1ccccc1)c1coc(-c2ccccn2)n1	inactive	2.47 (≈ 0.692 µg/mL)	2 (≈ 0.561 µg/mL)
Cc1ccc(C2=N[C@H](C(=O)OCc3ccccc3)CO2)cn1	inactive	122 (≈ 36.2 µg/mL)	73 (≈ 21.6 µg/mL)
O=C(OCc1ccccc1)[C@@H]1COC(c2cncc(Br)c2)=N1	inactive	26.6 (≈ 9.61 µg/mL)	27.6 (≈ 9.97 µg/mL)
COC(=O)[C@@H]1COC(c2cccc(Cl)c2)=N1	inactive	68.7 (≈ 16.5 µg/mL)	> 128
COc1ccc(C2=N[C@H](C(=O)OCc3ccccc3)CO2)cc1OC	inactive	21.6 (≈ 7.37 µg/mL)	39 (≈ 13.3 µg/mL)
O=C(O)[C@@H]1COC(c2cccc(Cl)c2)=N1	inactive	106 (≈ 23.9 µg/mL)	> 128
O=C(OCc1ccccc1)c1coc(-c2cnccn2)n1	inactive	22.5 (≈ 6.33 µg/mL)	7.32 (≈ 2.06 µg/mL)
O=C(OCc1ccccc1)[C@@H]1COC(c2ccc(Cl)cc2)=N1	inactive	14.9 (≈ 4.7 µg/mL)	61 (≈ 19.3 µg/mL)
N#Cc1cccc(-c2nc(C(=O)OCc3ccccc3)co2)c1	inactive	60.5 (≈ 18.4 µg/mL)	25.2 (≈ 7.67 µg/mL)

Compound	Activity [1]	MIC [2] [µM]	MIC [3] [µM]
O=C(OCc1ccccc1)c1coc(-c2ccc(Cl)c(F)c2)n1	inactive	22.4 (≈ 7.43 µg/mL)	2.87 (≈ 0.952 µg/mL)
O=C(OCc1ccccc1)c1coc(-c2cccnc2S(=O)(=O)c2ccccc2)n1	inactive	> 128	66.2 (≈ 27.8 µg/mL)
COc1cccc(-c2nc(C(=O)OCc3ccccc3)co2)c1	inactive	3.76 (≈ 1.16 µg/mL)	6.04 (≈ 1.87 µg/mL)
Cc1ccc(-c2nc(C(=O)OCc3ccccc3)co2)cc1	inactive	7.68 (≈ 2.25 µg/mL)	12.8 (≈ 3.77 µg/mL)
CCCCOc1ccc(C2=N[C@H](C(=O)OCc3ccccc3)CO2)cc1	inactive	5.11 (≈ 1.81 µg/mL)	2.72 (≈ 0.961 µg/mL)
O=C(OCc1ccccc1)c1coc(-c2cccnc2)n1	inactive	6.2 (≈ 1.74 µg/mL)	3.82 (≈ 1.07 µg/mL)
CCCOc1ccc(-c2nc(C(=O)OCc3ccccc3)co2)cc1	inactive	1.94 (≈ 0.655 µg/mL)	3.48 (≈ 1.17 µg/mL)
CC(C)Oc1ccc(C2=N[C@H](C(=O)OCc3ccccc3)CO2)cc1	inactive	14.9 (≈ 5.06 µg/mL)	3.2 (≈ 1.09 µg/mL)
O=C(OCc1ccccc1)[C@@H]1COC(c2cccc(Br)c2)=N1	inactive	52.5 (≈ 18.9 µg/mL)	24.2 (≈ 8.72 µg/mL)
O=C(OCc1ccccc1)[C@@H]1COC(c2ccc([N+](=O)[O-])cc2OCc2ccccc2)=N1	inactive	4.86 (≈ 2.1 µg/mL)	15.6 (≈ 6.75 µg/mL)
O=C(OCc1ccccc1)[C@@H]1COC(c2ccc(Cl)c(F)c2)=N1	inactive	6.49 (≈ 2.17 µg/mL)	52 (≈ 17.4 µg/mL)
Cc1oc(-c2ccccc2)nc1C(=O)O	inactive	> 128	> 128
COC(=O)[C@@H]1COC(c2ccc([N+](=O)[O-])cc2)=N1	inactive	> 128	> 128
Cc1oc(-c2ccccc2O)nc1C(=O)O	inactive	> 128	> 128
O=C(OCc1ccccc1)c1coc(-c2ccc([N+](=O)[O-])cc2OCc2ccccc2)n1	inactive	> 128	> 128
COc1ccccc1-c1nc(C(=O)OCc2ccccc2)co1	inactive	7.54 (≈ 2.33 µg/mL)	3.88 (≈ 1.2 µg/mL)
O=C(OCc1ccccc1)[C@@H]1COC(c2ccncc2)=N1	inactive	81.3 (≈ 23 µg/mL)	55.6 (≈ 15.7 µg/mL)
O=C(OCc1ccccc1)[C@@H]1COC(c2ccccn2)=N1	inactive	127 (≈ 35.9 µg/mL)	110 (≈ 31.1 µg/mL)
CCOc1ccc(C2=N[C@H](C(=O)OCc3ccccc3)CO2)cc1	inactive	30.5 (≈ 9.92 µg/mL)	60.6 (≈ 19.7 µg/mL)
CCCOc1ccc(C2=N[C@H](C(=O)OCc3ccccc3)CO2)cc1	inactive	22.4 (≈ 7.6 µg/mL)	2.97 (≈ 1.01 µg/mL)
O=C(OCc1ccccc1)c1coc(-c2cccc(Cl)c2OCc2ccccc2)n1	inactive	> 128	5.4 (≈ 2.27 µg/mL)
O=C(OCc1ccccc1)[C@@H]1COC(c2ccccc2Cl)=N1	inactive	15.2 (≈ 4.8 µg/mL)	49.9 (≈ 15.8 µg/mL)
O=C(OCc1ccccc1)[C@@H]1COC(c2cccc(F)c2)=N1	inactive	6.86 (≈ 2.05 µg/mL)	60.7 (≈ 18.2 µg/mL)
O=C(OCc1ccccc1)[C@@H]1COC(Cc2ccccc2)=N1	inactive	> 128	> 128

Compound	Activity [1]	MIC [2] [µM]	MIC [3] [µM]
O=C(OCc1ccccc1)c1coc(-c2ccccc2P(=O)(c2ccccc2)c2ccccc2)n1	inactive	61.5 (≈ 29.5 µg/mL)	61.8 (≈ 29.6 µg/mL)
COc1ccc(CNC(=O)c2coc(-c3cccc(Cl)c3)n2)cc1OC	inactive	48.1 (≈ 17.9 µg/mL)	118 (≈ 44 µg/mL)
COc1ccc(C2=N[C@H](C(=O)OCc3ccccc3)[C@H](C)O2)cc1	inactive	37.8 (≈ 12.3 µg/mL)	54.1 (≈ 17.6 µg/mL)
N#Cc1cccc(C2=N[C@H](C(=O)OCc3ccccc3)CO2)c1	inactive	75.1 (≈ 23 µg/mL)	47.2 (≈ 14.5 µg/mL)
COC(=O)[C@@H]1COC(c2ccccc2O)=N1	inactive	> 128	> 128
O=C(OCc1ccccc1)[C@@H]1COC(c2cnccn2)=N1	inactive	> 128	61.2 (≈ 17.3 µg/mL)
O=C(OCc1ccccc1)c1coc(-c2ccc([N+](=O)[O-])cc2)n1	inactive	42.3 (≈ 13.7 µg/mL)	1.79 (≈ 0.58 µg/mL)
O=C(OCc1ccccc1)[C@@H]1COC(c2cccnc2)=N1	inactive	92.9 (≈ 26.2 µg/mL)	53.3 (≈ 15 µg/mL)
CCOc1ccc(C2=N[C@H](C(=O)OCc3ccccc3)CO2)cc1F	inactive	3.91 (≈ 1.34 µg/mL)	50.5 (≈ 17.3 µg/mL)
CCCCOc1ccc(-c2nc(C(=O)OCc3ccccc3)co2)cc1	inactive	3.83 (≈ 1.35 µg/mL)	1.76 (≈ 0.618 µg/mL)
COC(=O)[C@@H]1COC(c2ccccc2OCc2ccccc2)=N1	inactive	> 128	118 (≈ 36.7 µg/mL)
O=C(OCc1ccccc1)c1coc(-c2ccc(OCc3ccccc3)c(F)c2)n1	inactive	3.86 (≈ 1.56 µg/mL)	3.03 (≈ 1.22 µg/mL)
O=C(OCc1ccccc1)[C@@H]1COC(c2ccc(Br)nc2)=N1	inactive	21.1 (≈ 7.62 µg/mL)	22.9 (≈ 8.27 µg/mL)
O=C(OCc1ccccc1)c1coc(-c2cccc(Br)c2)n1	inactive	6.08 (≈ 2.18 µg/mL)	1.93 (≈ 0.691 µg/mL)
C[C@@H]1OC(c2ccccc2OCc2ccccc2)=N[C@@H]1C(=O)OCc1ccccc1	inactive	> 128	> 128
O=C(OCc1ccccc1)[C@@H]1COC(c2ccc(F)cc2[N+](=O)[O-])=N1	inactive	40.4 (≈ 13.9 µg/mL)	30.7 (≈ 10.6 µg/mL)
O=C(OCc1ccccc1)c1coc(-c2ccncc2)n1	inactive	6.1 (≈ 1.71 µg/mL)	1.42 (≈ 0.398 µg/mL)
COc1ccc(-c2nc(C(=O)OCc3ccccc3)co2)cc1OC	inactive	17.5 (≈ 5.94 µg/mL)	16 (≈ 5.43 µg/mL)
CC(C)Oc1ccc(-c2nc(C(=O)OCc3ccccc3)co2)cc1	inactive	3.21 (≈ 1.08 µg/mL)	1.95 (≈ 0.658 µg/mL)
O=C(O)[C@@H]1COC(c2ccccc2)=N1	inactive	> 128	> 128
O=C(OCc1ccccc1)c1coc(-c2cccnc2Sc2ccccc2)n1	inactive	> 128	8 (≈ 3.11 µg/mL)
O=C(O)[C@@H]1COC(c2ccccc2O)=N1	inactive	> 128	> 128
